In patent US6852673B2, “Herbicidal pyridine compounds” (BASF Aktiengesellschaft, priority 1998, dated 2005):

Assays:
Format in all cases: in vivo
[1] = tested on: Triticum aestivum (TRZAW); test: Pre-emergence herbicidal evaluation, winter wheat
Source text: (§1) The pre-emergence herbicidal activity of the compounds of the present invention is exemplified by the following test in which the seeds of a variety of monocotyledonous and dicotyledonous plants are seperately mixed with potting soil and planted on top of approximately one inch of soil in separate pots. After planting, the pots are sprayed with the selected aqueous acetone solution containing test compound in sufficient quantity to provide the equivalent of about 0.0125 to 0.4 kg per hectare of test compound per pot. The treated pots are then placed on greenhouse benches, watered and cared for in accordance with conventional greenhouse procedures. From 2 to 4 weeks after treatment, the tests are terminated and each pot is examined and rated according to the rating system set forth below.

[2] = tested on: Matricaria inodora (MATIN); test: Pre-emergence herbicidal evaluation, mayweed
Source text: as §1

[3] = tested on: Stellaria media (STEME); test: Pre-emergence herbicidal evaluation, chickweed
Source text: as §1

[4] = tested on: Alopecurus myosuroides (ALOMY); test: Pre-emergence herbicidal evaluation, black grass
Source text: as §1

[5] = tested on: Setaria viridis (SETVI); test: Pre-emergence herbicidal evaluation, green foxtail
Source text: as §1

[6] = tested on: Hordeum vulgare (HORVW); test: Pre-emergence herbicidal evaluation, winter barley
Source text: as §1

[7] = tested on: Abutilon theophrasti (ABUTH); test: Pre-emergence herbicidal evaluation, velvetleaf
Source text: as §1

[8] = tested on: Ipomoea hederacea (IPOHE); test: Pre-emergence herbicidal evaluation, morning glory
Source text: as §1

[9] = tested on: Lamium purpureum (LAMPU); test: Pre-emergence herbicidal evaluation, purple deadnettle
Source text: as §1

[10] = tested on: Solanum nigrum (SOLNI); test: Pre-emergence herbicidal evaluation, black nightshade
Source text: as §1

[11] = tested on: Digitaria sanguinalis (DIGSA); test: Pre-emergence herbicidal evaluation, large crabgrass
Source text: as §1

[12] = tested on: Galium aparine (GALAP); test: Pre-emergence herbicidal evaluation, cleaver
Source text: as §1

Row | Structure (SMILES) | HORVW rating ([6]; dose 0.025 kg/ha) | HORVW rating ([6]; dose 0.1 kg/ha) | HORVW rating ([6]; dose 0.4 kg/ha) | TRZAW rating ([1]; dose 0.025 kg/ha) | TRZAW rating ([1]; dose 0.1 kg/ha) | TRZAW rating ([1]; dose 0.4 kg/ha) | ABUTH rating ([7]; dose 0.025 kg/ha) | ABUTH rating ([7]; dose 0.1 kg/ha) | ABUTH rating ([7]; dose 0.4 kg/ha) | IPOHE rating ([8]; dose 0.025 kg/ha) | IPOHE rating ([8]; dose 0.1 kg/ha) | IPOHE rating ([8]; dose 0.4 kg/ha) | LAMPU rating ([9]; dose 0.025 kg/ha) | LAMPU rating ([9]; dose 0.1 kg/ha) | LAMPU rating ([9]; dose 0.4 kg/ha) | MATIN rating ([2]; dose 0.025 kg/ha) | MATIN rating ([2]; dose 0.1 kg/ha) | MATIN rating ([2]; dose 0.4 kg/ha) | STEME rating ([3]; dose 0.025 kg/ha) | STEME rating ([3]; dose 0.1 kg/ha) | also measured
1 | CC(Cl)=CCOc1nc(Oc2cc(C(F)(F)F)nn2C)c(F)c(C)c1F [Example 35] |  |  |  |  |  |  |  |  |  |  |  |  |  |  |  |  |  |  |  |  | TRZAW rating ([1]; dose 0.04 kg/ha): 1 (1 - Trace effect); TRZAW rating ([1]; dose 0.06 kg/ha): 3 (3 - Moderate effect); TRZAW rating ([1]; dose 0.12 kg/ha): 3 (3 - Moderate effect); MATIN rating ([2]; dose 0.04 kg/ha): 9 (9 - Complete kill); MATIN rating ([2]; dose 0.06 kg/ha): 9 (9 - Complete kill); MATIN rating ([2]; dose 0.12 kg/ha): 9 (9 - Complete kill); STEME rating ([3]; dose 0.04 kg/ha): 8 (8 - Approaching complete kill); STEME rating ([3]; dose 0.06 kg/ha): 9 (9 - Complete kill); STEME rating ([3]; dose 0.12 kg/ha): 9 (9 - Complete kill); ALOMY rating ([4]; dose 0.04 kg/ha): 9 (9 - Complete kill); ALOMY rating ([4]; dose 0.06 kg/ha): 9 (9 - Complete kill); ALOMY rating ([4]; dose 0.12 kg/ha): 9 (9 - Complete kill); SETVI rating ([5]; dose 0.04 kg/ha): 8 (8 - Approaching complete kill); SETVI rating ([5]; dose 0.06 kg/ha): 9 (9 - Complete kill); SETVI rating ([5]; dose 0.12 kg/ha): 9 (9 - Complete kill)
2 | CC(Cl)=CCOc1cc(C#N)cc(Oc2csc(C(F)(F)F)c2)n1 [Example 28] | 0 (0 - No effect) | 1 (1 - Trace effect) | 3 (3 - Moderate effect) | 0 (0 - No effect) | 0 (0 - No effect) | 1 (1 - Trace effect) | 5 (5 - Definite injury) | 7 (7 - Good herbicidal effect) | 8 (8 - Approaching complete kill) | 0 (0 - No effect) | 0 (0 - No effect) | 1 (1 - Trace effect) | 5 (5 - Definite injury) | 8 (8 - Approaching complete kill) | 8 (8 - Approaching complete kill) | 9 (9 - Complete kill) | 9 (9 - Complete kill) | 9 (9 - Complete kill) | 9 (9 - Complete kill) | 9 (9 - Complete kill) | SOLNI rating ([10]; dose 0.025 kg/ha): 4 (4 - Injury); SOLNI rating ([10]; dose 0.1 kg/ha): 8 (8 - Approaching complete kill); SOLNI rating ([10]; dose 0.4 kg/ha): 8 (8 - Approaching complete kill); STEME rating ([3]; dose 0.4 kg/ha): 9 (9 - Complete kill); ALOMY rating ([4]; dose 0.025 kg/ha): 3 (3 - Moderate effect); ALOMY rating ([4]; dose 0.1 kg/ha): 8 (8 - Approaching complete kill); ALOMY rating ([4]; dose 0.4 kg/ha): 9 (9 - Complete kill); DIGSA rating ([11]; dose 0.025 kg/ha): 3 (3 - Moderate effect); DIGSA rating ([11]; dose 0.1 kg/ha): 9 (9 - Complete kill); DIGSA rating ([11]; dose 0.4 kg/ha): 9 (9 - Complete kill)
3 | C=C(Cl)COc1cc(C)cc(Oc2cc(C(F)(F)F)nn2C)n1 [Example 36] | 2 (2 - Slight effect) | 3 (3 - Moderate effect) | 5 (5 - Definite injury) | 0 (0 - No effect) | 2 (2 - Slight effect) | 2 (2 - Slight effect) | 5 (5 - Definite injury) | 5 (5 - Definite injury) | 8 (8 - Approaching complete kill) | 2 (2 - Slight effect) | 3 (3 - Moderate effect) | 9 (9 - Complete kill) | 7 (7 - Good herbicidal effect) | 8 (8 - Approaching complete kill) | 9 (9 - Complete kill) | 7 (7 - Good herbicidal effect) | 9 (9 - Complete kill) | 9 (9 - Complete kill) | 5 (5 - Definite injury) | 9 (9 - Complete kill) | GALAP rating ([12]; dose 0.025 kg/ha): 0 (0 - No effect); GALAP rating ([12]; dose 0.1 kg/ha): 3 (3 - Moderate effect); GALAP rating ([12]; dose 0.4 kg/ha): 8 (8 - Approaching complete kill); STEME rating ([3]; dose 0.4 kg/ha): 9 (9 - Complete kill); ALOMY rating ([4]; dose 0.025 kg/ha): 4 (4 - Injury); ALOMY rating ([4]; dose 0.1 kg/ha): 8 (8 - Approaching complete kill); ALOMY rating ([4]; dose 0.4 kg/ha): 9 (9 - Complete kill); DIGSA rating ([11]; dose 0.025 kg/ha): 8 (8 - Approaching complete kill); DIGSA rating ([11]; dose 0.1 kg/ha): 9 (9 - Complete kill); DIGSA rating ([11]; dose 0.4 kg/ha): 9 (9 - Complete kill); SETVI rating ([5]; dose 0.025 kg/ha): 9 (9 - Complete kill); SETVI rating ([5]; dose 0.1 kg/ha): 9 (9 - Complete kill); SETVI rating ([5]; dose 0.4 kg/ha): 9 (9 - Complete kill)
